Patent US12162893B2 (Erasca, Inc., priority 2020, dated 2024)

Biological target: T1, mutant G12C K-RAS (Homo sapiens, UniProt P01116, G12C)
T1 construct: made in house; host or cells: E. coli BL21
Test: covalent adduct formation (CAF) with mutant G12C K-RAS
Format: binding
Settings: for % CAF @ 10 μM,1 h: Table 6
Protocol: Embodiments disclosed herein are further illustrated by the following examples in Tables 1-4 and the Examples hereinbelow. The Tables indicate the compound number, structure, the observed mass spectral molecular weight peak, and covalent adduct formation (CAF) with a mutant G12C K-RAS after 60 minutes at a concentration of 10 micromolar.

Row | Structure (SMILES) | % CAF (60 min) (Table 1, Pyrimidone Core-Morpholine Unsubstituted, after 60 minutes at 10 micromolar) [%] | % CAF @ 10 μM,1 h [%]
1 | C=C(F)C(=O)N1CCN(c2nc(=O)n3c4c(c(-c5c(O)cccc5F)c(Cl)cc24)OCC3)C[C@@H]1CC#N (atropisomer, axis not shown) [Example 10, 2-((2S)-4-(9-chloro-10-(2-fluoro-6-hydroxyphenyl)-5-oxo-3,5-dihydro-2H-[1,4]oxazino[2,3,4-ij]quinazolin-7-yl)-1-(2-fluoroacryloyl)piperazin-2-yl)acetonitrile] | 8.5 | 
2 | C=CC(=O)N1C[C@H](C)N(c2nc(=O)n3c4c(c(-c5c(O)cccc5F)c(Cl)cc24)OC[C@@H]3CCCN2CCOCC2)C[C@H]1C (atropisomer, axis not shown) [Example 225, (3S,10R)-7-((2S,5R)-4-acryloyl-2,5-dimethylpiperazin-1-yl)-9-chloro-10-(2-fluoro-6-hydroxyphenyl)-3-(3-morpholinopropyl)-2,3-dihydro-5H-[1,4]oxazino[2,3,4-ij]quinazolin-5-one] |  | 4.4
3 | C=CC(=O)N1C[C@H](C)N(c2nc(=O)n3c4c(c(-c5c(O)cccc5F)c(Cl)cc24)OC[C@@H]3CCCN2CCOCC2)C[C@H]1C (atropisomer, axis not shown) [Example 226, (3S,10S)-7-((2S,5R)-4-acryloyl-2,5-dimethylpiperazin-1-yl)-9-chloro-10-(2-fluoro-6-hydroxyphenyl)-3-(3-morpholinopropyl)-2,3-dihydro-5H-[1,4]oxazino[2,3,4-ij]quinazolin-5-one] |  | 97.8
4 | C=CC(=O)N1C[C@H](C)N(c2nc(=O)n3c4c(c(-c5c(O)cccc5F)c(Cl)cc24)OC[C@@H]3CN(C)CC(F)(F)F)C[C@H]1C (atropisomer, axis not shown) [Example 239, (3S,10R)-7-((2S,5R)-4-acryloyl-2,5-dimethylpiperazin-1-yl)-9-chloro-10-(2-fluoro-6-hydroxyphenyl)-3-((methyl(2,2,2-trifluoroethyl)amino)methyl)-2H-[1,4]oxazino[2,3,4-ij]quinazolin-5(3H)-one] |  | 3
5 | C=CC(=O)N1C[C@H](C)N(c2nc(=O)n3c4c(c(-c5c(O)cccc5F)c(Cl)cc24)OC[C@@H]3CN(C)CC(F)(F)F)C[C@H]1C (atropisomer, axis not shown) [Example 240, (3S,10S)-7-((2S,5R)-4-acryloyl-2,5-dimethylpiperazin-1-yl)-9-chloro-10-(2-fluoro-6-hydroxyphenyl)-3-((methyl(2,2,2-trifluoroethyl)amino)methyl)-2H-[1,4]oxazino[2,3,4-ij]quinazolin-5(3H)-one] |  | 82.1
6 | C=CC(=O)N1C[C@H](C)N(c2nc(=O)n3c4c(c(-c5c(O)cccc5F)c(Cl)cc24)OC[C@H]3CN(C)CC(F)(F)F)C[C@H]1C (atropisomer, axis not shown) [Example 241, (3R,10R)-7-((2S,5R)-4-acryloyl-2,5-dimethylpiperazin-1-yl)-9-chloro-10-(2-fluoro-6-hydroxyphenyl)-3-((methyl(2,2,2-trifluoroethyl)amino)methyl)-2H-[1,4]oxazino[2,3,4-ij]quinazolin-5(3H)-one] |  | 0

Results, then the compound that gave them:

Row | % CAF (60 min) (Table 1, Pyrimidone Core-Morpholine Unsubstituted, after 60 minutes at 10 micromolar) [%] | % CAF @ 10 μM,1 h [%] | Structure (SMILES)
7 |  | 0 | C=CC(=O)N1C[C@H](C)N(c2nc(=O)n3c4c(c(-c5c(O)cccc5F)c(Cl)cc24)OC[C@@H]3CN2CCOCC2)C[C@H]1C (atropisomer, axis not shown) [Example 208, (3R,10R)-7-((2S,5R)-4-acryloyl-2,5-dimethylpiperazin-1-yl)-9-chloro-10-(2-fluoro-6-hydroxyphenyl)-3 - (morpholinomethyl)-2,3-dihydro-5H-[1,4]oxazino[2,3,4-ij]quinazolin-5-one]
8 |  | 85 | C=CC(=O)N1C[C@H](C)N(c2nc(=O)n3c4c(c(-c5c(O)cccc5F)c(Cl)cc24)OC[C@H]3CN2CCOCC2)C[C@H]1C (atropisomer, axis not shown) [Example 209, (3R,10S)-7-((2S,5R)-4-acryloyl-2,5-dimethylpiperazin-1-yl)-9-chloro-10-(2-fluoro-6-hydroxyphenyl)-3-(morpholinomethyl)-2,3-dihydro-5H-[1,4]oxazino[2,3,4-ij]quinazolin-5-one]
9 |  | 0 | C=CC(=O)N1C[C@H](C)N(c2nc(=O)n3c4c(c(-c5c(O)cccc5F)c(Cl)cc24)OC[C@H]3CN2CCOCC2)C[C@H]1C (atropisomer, axis not shown) [Example 210, (3R,10R)-7-((2S,5R)-4-acryloyl-2,5-dimethylpiperazin-1-yl)-9-chloro-10-(2-fluoro-6-hydroxyphenyl)-3-(morpholinomethyl)-2,3-dihydro-5H-[1,4]oxazino[2,3,4-ij]quinazolin-5-one]
10 |  | 1.4 | C=CC(=O)N1C[C@H](C)N(c2nc(=O)n3c4c(c(-c5c(O)cccc5F)c(Cl)cc24)OC[C@H]3CN2CCC(F)(F)C2)C[C@H]1C (atropisomer, axis not shown) [Example 222, (3R,10S)-7-((2S,5R)-4-acryloyl-2,5-dimethylpiperazin-1-yl)-9-chloro-3-((3,3-difluoropyrrolidin-1-yl)methyl)-10-(2-fluoro-6-hydroxyphenyl)-2,3-dihydro-5H-[1,4]oxazino[2,3,4-ij]quinazolin-5-one]
11 |  | 0 | C=CC(=O)N1CCN(c2nc(=O)n3c4c(c(-c5c(O)cccc5F)c(Cl)cc24)OC[C@H]3CN2CCC(F)(F)C2)[C@@H](C)C1 (atropisomer, axis not shown) [Example 227, (3R,10R)-7-((S)-4-acryloyl-2-methylpiperazin-1-yl)-9-chloro-3-((3,3-difluoropyrrolidin-1-yl)methyl)-10-(2-fluoro-6-hydroxyphenyl)-2,3-dihydro-5H-[1,4]oxazino[2,3,4-ij]quinazolin-5-one]
12 |  | 98 | C=CC(=O)N1CCN(c2nc(=O)n3c4c(c(-c5c(O)cccc5F)c(Cl)cc24)OC[C@@H]3CN2CCC(F)(F)C2)[C@@H](C)C1 (atropisomer, axis not shown) [Example 228, (3S,10S)-7-((S)-4-acryloyl-2-methylpiperazin-1-yl)-9-chloro-3-((3,3-difluoropyrrolidin-1-yl)methyl)-10-(2-fluoro-6-hydroxyphenyl)-2,3-dihydro-5H-[1,4]oxazino[2,3,4-ij]quinazolin-5-one]
13 |  | 1.6 | C=CC(=O)N1CCN(c2nc(=O)n3c4c(c(-c5c(O)cccc5F)c(Cl)cc24)OC[C@@H]3CN2CCC(F)(F)C2)[C@@H](C)C1 (atropisomer, axis not shown) [Example 229, (3S,10R)-7-((S)-4-acryloyl-2-methylpiperazin-1-yl)-9-chloro-3-((3,3-difluoropyrrolidin-1-yl)methyl)-10-(2-fluoro-6-hydroxyphenyl)-2,3-dihydro-5H-[1,4]oxazino[2,3,4-ij]quinazolin-5-one]
14 |  | 75.9 | C=CC(=O)N1CCN(c2nc(=O)n3c4c(c(-c5c(O)cccc5F)c(Cl)cc24)OC[C@H]3CN2CCC(F)(F)C2)[C@@H](C)C1 (atropisomer, axis not shown) [Example 230, (3R,10S)-7-((S)-4-acryloyl-2-methylpiperazin-1-yl)-9-chloro-3-((3,3-difluoropyrrolidin-1-yl)methyl)-10-(2-fluoro-6-hydroxyphenyl)-2,3-dihydro-5H-[1,4]oxazino[2,3,4-ij]quinazolin-5-one]
